Columns and labels:
[1] = tested on: HCT116 cells; assay: SRB antiproliferative assay, HCT116 (wt p53); format: cell-based; settings: Homo sapiens, HCT-116, 48 h of treatment, mean ± SEM
Description: (§1) Human colorectal adenocarcinoma HCT116 cell lines expressing p53 and its p53-null isogenic derivative (HCT116 p53^−/−) were provided by B. Vogelstein (The Johns Hopkins Kimmel Cancer Center, Baltimore, MD, USA). Human colorectal adenocarcinoma SW837, HT29, pancreatic carcinoma PANC-1, breast adenocarcinoma MCF-7, hepatocarcinoma HEPG2, melanoma A375, normal human foreskin fibroblasts HFF-1, and normal human colon CCD-18Co cell lines were purchased from ATCC (Rockville, MD, USA). The cancer cell lines were routinely cultured with RPMI-1640 medium from Biowest (HCT116, HCT116 p53^−/−, SW837, HT29, A375, MCF-7, HEPG-2, and […]) or DMEM with 5% glucose (HFF-1) and supplemented with 10% fetal bovine serum from Gibco (Alfagene, Lisboa, Portugal). All cells were maintained in a humidified incubator at 37 °C and 5% CO2.
(§2) Human cell lines were seeded in 96-well plates at a density of 5.0 × 10^3 (HCT116 p53 ^−/−, HCT116 wt, HT29, SW837, CCD-18Co, HFF-1, and MCF-7 cell lines) or 4.5 × 10^3 (A375, HEPG2 and PANC-1 cell lines) cells per well, for 24 h. Cells were treated with the appropriate compound, with serial dilutions ranging from 0.2 to 50 µM, for 48 h. Following the incubation, the effects on cell proliferation were evaluated through the SRB assay as stated by Ramos et al.. The IC50 values were determined using the software GraphPad Prism version 9.0.

[2] = tested on: HCT116 p53−/− cells; assay: SRB antiproliferative assay, HCT116 p53−/−; format: cell-based; settings: Homo sapiens, HCT-116, 48 h of treatment, p53 knockout, mean ± SEM
Description: as §1, §2

[3] = tested on: SW837 cells; assay: SRB antiproliferative assay, SW837; format: cell-based; settings: Homo sapiens, 48 h of treatment, mean ± SEM
Description: as §1, §2

[4] = tested on: HT29 cells; assay: SRB antiproliferative assay, HT29; format: cell-based; settings: Homo sapiens, HT-29, 48 h of treatment, mean ± SEM
Description: as §1, §2

[5] = tested on: CCD-18Co cells; assay: SRB cytotoxicity assay, normal colon CCD-18Co; format: cell-based; settings: 48 h of treatment, normal human colon cell line, mean ± SEM
Description: as §1, §2

[6] = tested on: HFF-1 cells; assay: SRB assay, normal foreskin fibroblasts HFF-1; format: cell-based; settings: 48 h of treatment, normal human foreskin fibroblasts, mean ± SEM
Description: as §1, §2

[7] = tested on: PANC-1 cells; assay: SRB antiproliferative assay, PANC-1; format: cell-based, human; settings: 48 h of treatment, mean ± SEM
Description: as §1, §2

[8] = tested on: A375 cells; assay: SRB antiproliferative assay, A375; format: cell-based, human; settings: 48 h of treatment, mean ± SEM
Description: as §1, §2

[9] = tested on: HEPG2 cells; assay: SRB antiproliferative assay, HEPG2; format: cell-based, human; settings: 48 h of treatment, mean ± SEM
Description: as §1, §2

[10] = tested on: MCF-7 cells; assay: SRB antiproliferative assay, MCF-7; format: cell-based, human; settings: 48 h of treatment, mean ± SEM
Description: as §1, §2

[11] = tested on: HCT116 cells; assay: Annexin-V apoptosis assay, HCT116; format: cell-based, human; settings: HCT116, 4.5 and 9.0 μM, 48 h, flow cytometry PI/Annexin-V
Experimental: The analysis of apoptotic cell death was performed essentially as described by Ramos et al.. Briefly, 1.5 × 10^5 HCT116 cells/well were seeded in 6-well plates, allowed to adhere overnight, and then treated with 4.5 and 9.0 μM of compound 1a. After 48 h of treatment, cells were stained using the Annexin V-FITC Apoptosis Detection Kit I from BD Biosciences (Enzifarma, Porto, Portugal), according to the manufacturer’s instructions. The AccuriTM C6 flow cytometer and the BD Accuri C6 software (BD Biosciences) were used.

[12] = tested on: breast adenocarcinoma (MCF-7); set-up: method as in PMID 31247374; settings: cited from earlier work
[13] = tested on: ovarian carcinoma (OVCAR-3); set-up: method as in PMID 31247374; settings: cited from earlier work
[14] = tested on: leukemia (K-562); set-up: method as in PMID 31247374; settings: cited from earlier work
[15] = tested on: renal adenocarcinoma (786-0); set-up: method as in PMID 31247374; settings: cited from earlier work

Structure (SMILES)	IC50 [1] [µM]	IC50 [2] [µM]	IC50 [3] [µM]	IC50 [4] [µM]	IC50 [5] [µM]	melting point [°C]	further results
c1ccc(Cn2nnnc2-c2cc3c([nH]c4ccccc43)c(-c3ccccc3)n2)cc1 [1a]	4.5 ± 0.05	4.6 ± 0.43	44 ± 0.82	9 ± 0.55	26 ± 0.82	–	IC50 [6]: 29 ± 1.5 µM; IC50 ([7]; listed as C00001): 4 ± 0.4 µM; IC50 ([7]; Homo sapiens, PANC-1, 48 h): < 8 µM; IC50 ([8]; listed as C00001): 5.6 ± 0.2 µM; IC50 ([8]; Homo sapiens, A-375, 48 h): < 8 µM; IC50 ([9]; listed as C00001): 7.5 ± 1.27 µM; IC50 ([9]; Homo sapiens, HepG2, 48 h): < 8 µM; IC50 ([10]; listed as C00001): 7.7 ± 0.7 µM; IC50 ([10]; Homo sapiens, MCF7, 48 h): < 8 µM; Apoptotic cell death (Annexin-positive cells) [11]: associated with apoptotic cell death; IC50 [12]: 4.4 µM
COc1ccc(-c2nc(-c3nnnn3Cc3ccccc3)cc3c2[nH]c2ccccc23)cc1 [1b]	4.3 ± 0.08	4.2 ± 0.31	25 ± 1.63	5.9 ± 1.19	3.4 ± 0.29	–	–
Fc1ccc(-c2nc(-c3nnnn3Cc3ccccc3)cc3c2[nH]c2ccccc23)cc1 [1c]	3.4 ± 0.16	3.3 ± 0.73	29 ± 3.74	9.6 ± 1.18	7.5 ± 0.16	–	IC50 [13]: < 1 µM; IC50 [14]: < 1 µM; IC50 [15]: < 1 µM; IC50 [12]: < 1 µM
Fc1ccc(-c2nc(-c3nnn[nH]3)cc3c2[nH]c2ccccc23)cc1 [1d]	–	–	–	–	–	–	IC50 [13]: 0.27 µM
Clc1ccc(-n2cc(-c3cc4c([nH]c5ccccc54)c(-c4ccccc4)n3)nn2)cc1 [13a, 3-(1-(p-Chlorophenyl)-1H-1,2,3-triazol-4-yl)-1-phenyl-β-carboline]	39 ± 2.16	43 ± 0.82	> 50	> 50	> 50	207.5 to 207.9	–
Fc1ccc(-c2nc(-c3cn(-c4ccc(Cl)cc4)nn3)cc3c2[nH]c2ccccc23)cc1 [13b, 3-(1-(p-Chlorophenyl)-1H-1,2,3-triazol-4-yl)-1-(p-fluorophenyl)-β-carboline]	> 50	> 50	> 50	> 50	> 50	237.3 to 238.1	–
COc1ccc(-c2nc(-c3cn(-c4ccc(Cl)cc4)nn3)cc3c2[nH]c2ccccc23)cc1 [13c, 3-(1-(p-Chlorophenyl)-1H-1,2,3-triazol-4-yl)-1-(p-methoxyphenyl)-β-carboline]	32 ± 2.45	> 50	> 50	> 50	> 50	219.7 to 221.3	–
CN(C)c1ccc(-c2nc(-c3cn(-c4ccc(Cl)cc4)nn3)cc3c2[nH]c2ccccc23)cc1 [13d, 3-(1-(p-Chlorophenyl)-1H-1,2,3-triazol-4-yl)-1-(p-dimethylaminophenyl)-β-carboline]	> 50	> 50	> 50	> 50	> 50	244.2 to 245.6	–
O=[N+]([O-])c1cccc(-c2nc(-c3cn(-c4ccc(Cl)cc4)nn3)cc3c2[nH]c2ccccc23)c1 [13e, 3-(1-(p-Chlorophenyl)-1H-1,2,3-triazol-4-yl)-1-(m-nitrophenyl)-β-carboline]	> 50	> 50	> 50	> 50	> 50	237.3 to 239.1	–
Clc1ccc(-n2cc(-c3cc4c([nH]c5ccccc54)c(-c4ccccc4Cl)n3)nn2)cc1 [13f, 3-(1-(p-Chlorophenyl)-1H-1,2,3-triazol-4-yl)-1-(o-chlorophenyl)-β-carboline]	> 50	> 50	> 50	> 50	> 50	219.7 to 221.3	–
COC(=O)c1cc2c([nH]c3ccccc32)c(-c2ccccc2)n1 [14a]	> 50	> 50	–	–	–	–	–
COC(=O)c1cc2c([nH]c3ccccc32)c(-c2ccc(OC)cc2)n1 [14b]	> 50	> 50	–	–	–	–	–
COC(=O)c1cc2c([nH]c3ccccc32)c(-c2ccc(N(C)C)cc2)n1 [14c]	15 ± 1.41	18 ± 0.47	–	–	–	–	–
COC(=O)c1cc2c([nH]c3ccccc32)c(-c2cccc([N+](=O)[O-])c2)n1 [14d]	> 50	> 50	–	–	–	–	–
COC(=O)c1cc2c([nH]c3ccccc32)c(-c2ccccc2Cl)n1 [14e]	> 50	> 50	–	–	–	–	–
COc1cc([C@@H]2c3cc4c(cc3[C@@H](O[C@@H]3O[C@@H]5CO[C@@H](C)O[C@H]5[C@H](O)[C@H]3O)[C@H]3COC(=O)[C@H]23)OCO4)cc(OC)c1O [Etoposide, reference compound]	0.6 ± 0.05	0.9 ± 0.07	0.9 ± 0.07	0.7 ± 0.1	0.5 ± 0.07	–	IC50 [6]: 1.1 ± 0.01 µM; IC50 ([7]; Homo sapiens, PANC-1, 48 h): 3.1 ± 0.05 µM; IC50 ([8]; Homo sapiens, A-375, 48 h): 0.9 ± 0.07 µM; IC50 ([9]; Homo sapiens, HepG2, 48 h): 1.7 ± 0.2 µM; IC50 ([10]; Homo sapiens, MCF7, 48 h): 2.1 ± 0.03 µM

Reference: PMC9785278, “3-(1,2,3-Triazol-4-yl)-β-Carbolines and 3-(1H-Tetrazol-5-yl)-β-Carbolines: Synthesis and Evaluation as Anticancer Agents” (Pharmaceuticals, 2022)
